{"source": "patent US20220031680A1", "about": "“Donecopride As Neuroprotective Agent In the Treatment of Neurodegenerative Diseases” (priority 2018, published 2022)", "key": {"Tau (AT100)": {"tested_on": "Tau (AT100)", "assay": "Phosphorylation of Tau (AT100) in MAP-2 hippocampal neurons injured with Aβ1-42", "assay_type": "cell-based, rat", "details": "for Area of Tau (AT100)/neurons (% of control): Aβ 1-42 (20 μM) 24 h; for concentration of maximal effect on Tau hyperphosphorylation: Aβ1-42 injured hippocampal neurons", "experimental": "(§1) The hippocampal neurons were exposed with Aβ solutions (see below) after 17 days of culture. The Aβ1-42 preparation was done following the procedure described by Callizot et al. (2013) J. Neurosci. Res. 91706-716. Briefly, Aβ1-42 peptide was dissolved in the defined culture medium mentioned above, at an initial concentration of 40 μM. This solution was gently agitated for 3 days at 37° C. in the dark and immediately used after being properly diluted in culture medium to the concentrations used (20 μM (plate 1) or 2.5 μM (plate 2) corresponding to 2 μM or 0.25 μM of oligomers (AβO) respectively).\n(§2) Donecopride fumarate was solved in culture medium and preincubated 1 h before Aβ application. Aβ1-42 preparation was added to a final concentration of 20 or 2.5 μM (=2 μM or 0.25 μM of AβO, evaluated by automatic Western Blot) diluted in control medium in presence of Donecopride.\n(§3) 24 hours after intoxication, the hippocampal neurons were fixed by a cold solution of ethanol (95%) and acetic acid (5%) for 5 min at −20° C. After permeabilization with 0.1% of saponin, cells were incubated for 2 h with:\nb) mouse monoclonal antibody anti-phospho Tau (AT100) at dilution of 1/400 in PBS containing 1% fetal calf serum and 0.1% of saponin.\n(§4) For each condition, 30 pictures (representative of the whole well area) per well were taken using ImageXpress (Molecular Devices) at 20× magnification. All images were taken with the same acquisition parameters. Analyses were performed automatically by using Custom Module Editor (Molecular Devices).\n(§5) The following endpoints were assessed: • Total number of neurons (neuron survival, number of MAP-2 positive neurons) • Neurite network (in μm of MAP-2 positive neurons) • area of tau in neurons (μm^2, overlapping with MAP-2 positive neurons).\nInjury: The hippocampal neurons were exposed with Aβ solutions (see below) after 17 days of culture. The Aβ1-42 preparation was done following the procedure described by Callizot et al. (2013) J. Neurosci. Res. 91:706-716. The batch number of the Aβ1-42 used in this study contains 10% of oligomers (quantification by WB as performed in Combes et al. (2015) J. Neurosci. Res. 93:633-643). Briefly, Aβ1-42 peptide was dissolved in the defined culture medium mentioned above, at an initial concentration of 40 μmol/1. This solution was gently agitated for 3 days at 37° C. in the dark and immediately used after being properly diluted in culture medium to the concentrations used (20 μmol/l or 2.5 μmol/l corresponding to 2 μmol/l or 0.25 μmol/l of oligomers (AβO) respectively). Aβ1-42 preparation was added to a final concentration of 20 or 2.5 μmol/l (respectively 2 μmol/l or 0.25 μmol/l of AβO, determined by automatic WB) diluted in control medium in presence of the compounds.\nImmunostaining: MAP-2/AT100—After fixation and permeabilization, cells were incubated for 2 hours with: • a chicken polyclonal antibody anti microtubule-associated-protein 2 (MAP-2) at dilution of 1/1000 in PBS containing 1% fetal calf serum and 0.1% saponin (this antibody stains specifically cell bodies and neurites, allowing study of neuronal cell death and neurite network); and • a mouse monoclonal antibody anti-phospho Tau (AT100) at dilution of 1/100 in PBS containing 1% fetal calf serum and 0.1% saponin.\nFor each condition, 30 pictures (representative of the whole well area) per well were taken using ImageXpress® (Molecular Devices) with 20× magnification. All images were generated using the same acquisition parameters. From images, analyses were directly and automatically performed by Custom Module Editor® (Molecular Devices). The following read-outs were investigated: • Total number of neurons (neuron survival, number of MAP-2 positive neurons) • Neurite network (in μm of MAP-2 positive neurons) • Area of AT100 (μm^2, overlapping with MAP-2 positive neurons)."}, "[1]": {"tested_on": "rat primary hippocampal neurons injured with Aβ 1-42", "assay": "Survival and neurite network of MAP-2 neurons in primary hippocampal neurons injured with Aβ1-42", "assay_type": "cell-based", "details": "for MAP-2 neurite network (% of control) / MAP-2 neurons (% of control) / Neurite network/MAP-2 neurons (% of control): Aβ 1-42 (20 μM) 24 h; for MAP-2 neurons (% of control): 1 h preincubation; for Neurite network/MAP-2 neurons (% of control): neurite network normalized by number of neurons", "experimental": "Rat hippocampal neurons were cultured as described by Callizot et al. (2013) J. Neurosci. Res. 91706-716. Pregnant female rats of 17 days gestation (Rats Wistar; Janvier Labs France) were killed using a deep anesthesia with CO2 chamber followed by a cervical dislocation. Then, fetuses were removed from the uterus and immediately placed in ice-cold L15 Leibovitz medium with a 2% penicillin (10,000 U/ml) and streptomycin (10 mg/ml) solution (PS) and 1% bovine serum albumin (BSA). Hippocampal neurons were treated for 20 min at 37° C. with a trypsin-EDTA solution at a final concentration of 0.05% trypsin and 0.02% EDTA. The dissociation was stopped by adding Dulbecco's modified Eagle's medium (DMEM) with 4.5 g/l of glucose, containing DNAse I grade II (final concentration 0.5 mg/ml) and 10% fetal calf serum (FCS). Cells were mechanically dissociated by three forced passages through the tip of a 10-ml pipette and then centrifuged at 515×g for 10 min at 4° C. The supernatant was discarded, and the pellet was resuspended in a defined culture medium consisting of Neurobasal medium with a 2% solution of B27 supplement, 2 mmol/l of L-glutamine, 2% of PS solution, and 10 ng/ml of brain-derived neurotrophic factor (BDNF). Viable cells were counted in a Neubauer cytometer, using the trypan blue exclusion test. Cells were seeded at a density of 20,000 per well in 96-well plates precoated with poly-L-lysine and cultured at 37° C. in an air (95%)-CO2 (5%) incubator. The medium was changed every 2 days.\nas §1, §2\nDonecopride fumarate (Donecopride) was tested on one culture in a 96 well plate (6 wells per conditions). The compound was preincubated one hour before Aβ application. The following conditions were assessed:\nas §3\na) chicken polyclonal antibody anti microtubule-associated-protein 2 (MAP-2), diluted at 1/1000 in PBS containing 1% fetal calf serum and 0.1% of saponin (this antibody allows the specific staining of neuronal cell bodies and neurites; and allow the study of neuronal cell death and neurite network).\nas §4, §5\nAll values are expressed as mean+/−SEM. Statistical analysis was performed by one-way ANOVA, followed by PLSD Fisher's test, p<0.05 were considered significant.\nRat hippocampal neurons were cultured as described by Callizot et al. (2013) J. Neurosci. Res. 91:706-716. […]"}, "[2]": {"details": "Aβ1-42 injured hippocampal neurons, Example 4"}}, "note": "Marks after values point to notes of the source that are not given here.", "data": [{"smiles": "COc1cc2c(cc1OC)C(=O)C(CC1CCN(Cc3ccccc3)CC1)C2", "note": "(stereo not shown) [Donepezil, reference compound]", "values": [{"measurement": "Area of Tau (AT100)/neurons (% of control)", "setting": "Tau (AT100); 1 μM", "value": "151* % of control"}, {"measurement": "MAP-2 neurite network (% of control)", "setting": "[1]; 1 μM", "value": "92* % of control"}, {"measurement": "MAP-2 neurons (% of control)", "setting": "[1]; 1 μM", "value": "82* % of control"}, {"measurement": "Neurite network/MAP-2 neurons (% of control)", "setting": "[1]; 1 μM", "value": "113* % of control"}]}, {"smiles": "COc1cc(N)c(F)cc1C(=O)CCC1CCN(CC2CCCCC2)CC1", "note": "[Flucopride]", "values": [{"measurement": "concentration of maximal effect on Tau hyperphosphorylation", "setting": "Tau (AT100)", "value": 50, "unit": "nM"}, {"measurement": "neuroprotective effect (survival, neurite and synaptic network)", "setting": "[1]; [2]", "value": "strong neuroprotective effect"}, {"measurement": "concentration of maximum effect on survival and neurite network", "setting": "[1]; Aβ1-42 injured hippocampal neurons, bell shaped curve (FIGS. 1A-C)", "value": 100, "unit": "nM"}]}, {"smiles": "COc1cc(N)c(F)cc1C(=O)CCC1CCN(CC2CCCC2)CC1", "note": "[MR33583]", "values": [{"measurement": "concentration of maximal effect on Tau hyperphosphorylation", "setting": "Tau (AT100)", "value": "50 to 100", "unit": "nM"}, {"measurement": "active concentrations (neuroprotective effect)", "setting": "[1]; Aβ1-42 injured hippocampal neurons (FIGS. 7 and 8)", "value": "50 to 500", "unit": "nM"}, {"measurement": "effect on neurite network", "setting": "[1]; [2]", "value": "strong effect on neurite network was observed at almost every tested dose"}, {"measurement": "neuroprotective effect (survival, neurite and synaptic network)", "setting": "[1]; [2]", "value": "neuroprotective effect following a bell shaped curved"}]}, {"smiles": "COc1cc(N)c(F)cc1C(=O)CCC1CCN(CC2CCCCCC2)CC1", "note": "[MR36014]", "values": [{"measurement": "neuroprotective effect (survival, neurite network, Tau hyperphosphorylation)", "setting": "[1]; pM doses, Aβ1-42 injured hippocampal neurons, Example 5 (FIG. 11)", "value": "neuroprotective effect was also observed at pM doses"}]}, {"smiles": "COc1cc(N)c(Cl)cc1C(=O)CCC1CCN(CC2CCCCC2)CC1", "note": "[Donecopride]", "values": [{"measurement": "Area of Tau (AT100)/neurons (% of control)", "setting": "Tau (AT100); 1 nM", "value": "204 % of control"}, {"measurement": "Area of Tau (AT100)/neurons (% of control)", "setting": "Tau (AT100); 5 nM", "value": "201 % of control"}, {"measurement": "Area of Tau (AT100)/neurons (% of control)", "setting": "Tau (AT100); 10 nM", "value": "175 % of control"}, {"measurement": "Area of Tau (AT100)/neurons (% of control)", "setting": "Tau (AT100); 50 nM", "value": "161* % of control"}, {"measurement": "Area of Tau (AT100)/neurons (% of control)", "setting": "Tau (AT100); 100 nM", "value": "154* % of control"}, {"measurement": "Area of Tau (AT100)/neurons (% of control)", "setting": "Tau (AT100); 500 nM", "value": "152* % of control"}, {"measurement": "Area of Tau (AT100)/neurons (% of control)", "setting": "Tau (AT100); 1 μM", "value": "198 % of control"}, {"measurement": "MAP-2 neurite network (% of control)", "setting": "[1]; 1 nM", "value": "64 % of control"}, {"measurement": "MAP-2 neurons (% of control)", "setting": "[1]; 1 nM", "value": "70 % of control"}, {"measurement": "Neurite network/MAP-2 neurons (% of control)", "setting": "[1]; 1 nM", "value": "90 % of control"}, {"measurement": "MAP-2 neurite network (% of control)", "setting": "[1]; 5 nM", "value": "69 % of control"}, {"measurement": "MAP-2 neurons (% of control)", "setting": "[1]; 5 nM", "value": "69 % of control"}, {"measurement": "Neurite network/MAP-2 neurons (% of control)", "setting": "[1]; 5 nM", "value": "99 % of control"}, {"measurement": "MAP-2 neurite network (% of control)", "setting": "[1]; 10 nM", "value": "68 % of control"}, {"measurement": "MAP-2 neurons (% of control)", "setting": "[1]; 10 nM", "value": "73 % of control"}, {"measurement": "Neurite network/MAP-2 neurons (% of control)", "setting": "[1]; 10 nM", "value": "96 % of control"}, {"measurement": "MAP-2 neurite network (% of control)", "setting": "[1]; 50 nM", "value": "71* % of control"}, {"measurement": "MAP-2 neurons (% of control)", "setting": "[1]; 50 nM", "value": "74 % of control"}, {"measurement": "Neurite network/MAP-2 neurons (% of control)", "setting": "[1]; 50 nM", "value": "91 % of control"}, {"measurement": "MAP-2 neurite network (% of control)", "setting": "[1]; 100 nM", "value": "73* % of control"}, {"measurement": "MAP-2 neurons (% of control)", "setting": "[1]; 100 nM", "value": "78* % of control"}, {"measurement": "Neurite network/MAP-2 neurons (% of control)", "setting": "[1]; 100 nM", "value": "93 % of control"}, {"measurement": "MAP-2 neurite network (% of control)", "setting": "[1]; 500 nM", "value": "79* % of control"}, {"measurement": "MAP-2 neurons (% of control)", "setting": "[1]; 500 nM", "value": "79* % of control"}, {"measurement": "Neurite network/MAP-2 neurons (% of control)", "setting": "[1]; 500 nM", "value": "100 % of control"}, {"measurement": "MAP-2 neurite network (% of control)", "setting": "[1]; 1 μM", "value": "76* % of control"}, {"measurement": "MAP-2 neurons (% of control)", "setting": "[1]; 1 μM", "value": "62* % of control"}, {"measurement": "Neurite network/MAP-2 neurons (% of control)", "setting": "[1]; 1 μM", "value": "124* % of control"}]}]}
